Experimental data taken from ChEMBL document CHEMBL1154822, “Synthesis and antiproliferative activity of 7-azaindirubin-3'-oxime, a 7-aza isostere of the natural indirubin pharmacophore” (J Nat Prod, 2009).

Columns and labels:
786-0 = assay: Cytotoxicity against human 786-0 cells assessed as cell growth at 10 uM after 48 hrs by MTT assay; type: functional; conditions: 786-0, 48 h, read-out: Activity
CAKI-1 = assay: Cytotoxicity against human Caki1 cells assessed as cell growth at 10 uM after 48 hrs by MTT assay; type: functional; conditions: CAKI-1, 48 h, read-out: Activity
SN12C = assay: Cytotoxicity against human SN12C cells assessed as cell growth at 10 uM after 48 hrs by MTT assay; type: functional; conditions: read-out: Activity
TK-10 = assay: Cytotoxicity against human TK10 cells assessed as cell growth at 10 uM after 48 hrs by MTT assay; type: functional; conditions: TK-10, 48 h, read-out: Activity
HOP-92 = assay: Cytotoxicity against human HOP92 cells assessed as cell growth at 10 uM after 48 hrs by MTT assay; type: functional; conditions: HOP-92, 48 h, read-out: Activity
NCI-H23 = assay: Cytotoxicity against human NCI-H23 cells assessed as cell growth at 10 uM after 48 hrs by MTT assay; type: functional; conditions: NCI-H23, 48 h, read-out: Activity
NCI-H522 [1] = assay: Cytotoxicity against human NCI-H522 cells assessed as cell growth at 10 uM after 48 hrs by MTT assay; type: functional; conditions: NCI-H522, 48 h, read-out: Activity
COLO 205 = assay: Cytotoxicity against human COLO205 cells assessed as cell growth at 10 uM after 48 hrs by MTT assay; type: functional; conditions: COLO 205, 48 h, read-out: Activity
HCT-116 = assay: Cytotoxicity against human HCT116 cells assessed as cell growth at 10 uM after 48 hrs by MTT assay; type: functional; conditions: HCT-116, 48 h, read-out: Activity
HCT-15 = assay: Cytotoxicity against human HCT15 cells assessed as cell growth at 10 uM after 48 hrs by MTT assay; type: functional; conditions: HCT-15, 48 h, read-out: Activity
MDA-MB-231 = assay: Cytotoxicity against human MDA-MB-231 cells assessed as cell growth at 10 uM after 48 hrs by MTT assay; type: functional; conditions: MDA-MB-231, 48 h, read-out: Activity
NCI/ADR-RES = assay: Cytotoxicity against human NCI/ADR-RES cells assessed as cell growth at 10 uM after 48 hrs by MTT assay; type: functional; conditions: read-out: Activity
IGROV-1 = assay: Cytotoxicity against human IGROV1 cells assessed as cell growth at 10 uM after 48 hrs by MTT assay; type: functional; conditions: IGROV-1, 48 h, read-out: Activity
OVCAR-3 = assay: Cytotoxicity against human OVCAR-3 cells assessed as cell growth at 10 uM after 48 hrs by MTT assay; type: functional; conditions: OVCAR-3, 48 h, read-out: Activity
OVCAR-4 = assay: Cytotoxicity against human OVCAR4 cells assessed as cell growth at 10 uM after 48 hrs by MTT assay; type: functional; conditions: OVCAR-4, 48 h, read-out: Activity
SK-OV-3 = assay: Cytotoxicity against human SKOV3 cells assessed as cell growth at 10 uM after 48 hrs by MTT assay; type: functional; conditions: SK-OV-3, 48 h, read-out: Activity
MOLT-4 = assay: Cytotoxicity against human MOLT4 cells assessed as cell growth at 10 uM after 48 hrs by MTT assay; type: functional; conditions: MOLT-4, 48 h, read-out: Activity
Malme-3M = assay: Cytotoxicity against human MALME-3M cells assessed as cell growth at 10 uM after 48 hrs by MTT assay; type: functional; conditions: read-out: Activity
SK-MEL-28 = assay: Cytotoxicity against human SK-MEL-28 cells assessed as cell growth at 10 uM after 48 hrs by MTT assay; type: functional; conditions: SK-MEL-28, 48 h, read-out: Activity
UACC-62 = assay: Cytotoxicity against human UACC62 cells assessed as cell growth at 10 uM after 48 hrs by MTT assay; type: functional; conditions: UACC-62, 48 h, read-out: Activity
DU-145 [2] = assay: Cytotoxicity against human DU145 cells assessed as cell growth at 10 uM after 48 hrs by MTT assay; type: functional; conditions: DU-145, 48 h, read-out: Activity
SF-268 [3] = assay: Cytotoxicity against human SF268 cells assessed as cell growth at 10 uM after 48 hrs by MTT assay; type: functional; conditions: SF-268, 48 h, read-out: Activity
SNB-19 = assay: Cytotoxicity against human SNB19 cells assessed as cell growth at 10 uM after 48 hrs by MTT assay; type: functional; conditions: SNB-19, 48 h, read-out: Activity
SNB-75 = assay: Cytotoxicity against human SNB75 cells assessed as cell growth at 10 uM after 48 hrs by MTT assay; type: functional; conditions: SNB-75, 48 h, read-out: Activity
[4] = target: T1, Cyclin-dependent kinase 1/cyclin B1 (Homo sapiens) (UniProt P06493+P14635); assay: Inhibition of human CDK1/Cyclin B assessed as residual enzyme activity at 0.3 uM after 40 mins by scintillation counting; type: protein-complex assay
[5] = target: T1, Cyclin-dependent kinase 1/cyclin B1 (Homo sapiens); assay: Inhibition of human CDK1/Cyclin B assessed as residual enzyme activity at 3 uM after 40 mins by scintillation counting; type: protein-complex assay
[6] = target: Cyclin-dependent kinase 2/cyclin A (Homo sapiens) (UniProt P24941+P20248+P78396); assay: Inhibition of human CDK2/Cyclin A assessed as residual enzyme activity at 3 uM after 40 mins by scintillation counting; type: protein-complex assay
[7] = target: T2, Cyclin-dependent kinase 5/CDK5 activator 1 (Homo sapiens) (UniProt Q00535+Q15078); assay: Inhibition of human CDK5/p35 assessed as residual enzyme activity at 0.3 uM after 40 mins by scintillation counting; type: protein-complex assay
[8] = target: T2, Cyclin-dependent kinase 5/CDK5 activator 1 (Homo sapiens); assay: Inhibition of human CDK5/p35 assessed as residual enzyme activity at 3 uM after 40 mins by scintillation counting; type: protein-complex assay
HCC 2998 = assay: Cytotoxicity against human HCC2998 cells assessed as cell growth at 10 uM after 1 to 11 days by MTT assay; type: functional; conditions: read-out: Activity
T47D = assay: Cytotoxicity against human T47D cells assessed as cell growth at 10 uM after 1 to 11 days by MTT assay; type: functional; conditions: read-out: Activity
RPMI-8226 = assay: Cytotoxicity against human RPMI8226 cells assessed as cell growth at 100 uM after 1 to 11 days by MTT assay; type: functional; conditions: read-out: Activity
SF-268 [9] = assay: Cytotoxicity against human SF268 cells assessed as cell growth at 100 uM after 1 to 11 days by MTT assay; type: functional; conditions: read-out: Activity
UO-31 = assay: Cytotoxicity against human UO31 cells assessed as cell growth at 100 uM after 1 to 11 days by MTT assay; type: functional; conditions: read-out: Activity
DU-145 [10] = assay: Cytotoxicity against human DU145 cells assessed as cell growth at 100 uM after 1 to 11 days by MTT assay; type: functional; conditions: read-out: Activity
A549 = assay: Cytotoxicity against human A549 cells after 1 to 11 days by MTT assay; type: functional
NCI-H522 [11] = assay: Cytotoxicity against human NCI-H522 cells after 1 to 11 days by MTT assay; type: functional
U-251 = assay: Cytotoxicity against human U251 cells assessed as cell growth at 100 uM after 1 to 11 days by MTT assay; type: functional; conditions: read-out: Activity
[12] = read-out: LC50 (the source's name)

T1 sequence (P06493 whole entry, looked up): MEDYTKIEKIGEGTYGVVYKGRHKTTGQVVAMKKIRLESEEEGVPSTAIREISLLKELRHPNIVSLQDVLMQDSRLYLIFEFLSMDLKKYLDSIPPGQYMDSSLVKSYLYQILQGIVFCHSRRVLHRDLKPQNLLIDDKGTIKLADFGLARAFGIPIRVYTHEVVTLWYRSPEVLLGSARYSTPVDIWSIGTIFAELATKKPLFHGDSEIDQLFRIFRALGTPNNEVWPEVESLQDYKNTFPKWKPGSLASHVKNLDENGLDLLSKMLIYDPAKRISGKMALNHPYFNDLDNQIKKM
T1 sequence (P14635 whole entry, looked up): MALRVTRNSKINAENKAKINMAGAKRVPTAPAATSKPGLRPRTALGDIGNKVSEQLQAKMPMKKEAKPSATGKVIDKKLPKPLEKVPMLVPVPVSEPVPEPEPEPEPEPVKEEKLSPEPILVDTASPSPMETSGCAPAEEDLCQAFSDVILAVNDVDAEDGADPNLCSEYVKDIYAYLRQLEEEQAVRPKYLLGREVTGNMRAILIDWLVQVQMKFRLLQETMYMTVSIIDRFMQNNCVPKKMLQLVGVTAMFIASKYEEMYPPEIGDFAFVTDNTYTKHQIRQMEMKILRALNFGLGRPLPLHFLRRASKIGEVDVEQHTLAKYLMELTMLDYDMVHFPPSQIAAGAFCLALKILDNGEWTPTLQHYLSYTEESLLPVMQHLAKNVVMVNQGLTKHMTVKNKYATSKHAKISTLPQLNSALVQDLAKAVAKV

For O=C1Nc2ncccc2/C1=C1/Nc2ccccc2C1=O, the growth at 10 µM (786-0) was 84.1%, the growth at 10 µM (CAKI-1) was 53.7% and the growth at 10 µM (SN12C) was 90.6%. The growth at 10 µM (TK-10) was 56.4%, the growth at 10 µM (HOP-92) was 96.9% and the growth at 10 µM (NCI-H23) was 76%. It also gave a growth at 10 µM (NCI-H522 [1]) of 76.3%, a growth at 10 µM (COLO 205) of 82.8% and a growth at 10 µM (HCT-116) of 48.5%. It also gave a growth at 10 µM (HCT-15) of 77.9%, a growth at 10 µM (MDA-MB-231) of 78.3% and a growth at 10 µM (NCI/ADR-RES) of 82.7%. The growth at 10 µM (IGROV-1) was -40.9%, the growth at 10 µM (OVCAR-3) was 75.8% and the growth at 10 µM (OVCAR-4) was 80.4%. For the same molecule, the growth at 10 µM (SK-OV-3) was 89.5%, the growth at 10 µM (MOLT-4) was 85.3% and the growth at 10 µM (Malme-3M) was 139%. The growth at 10 µM (SK-MEL-28) was 123%, the growth at 10 µM (UACC-62) was 79.6% and the growth at 10 µM (DU-145 [2]) was 81.2%. It also gave a growth at 10 µM (SF-268 [3]) of 84.4%, a growth at 10 µM (SNB-19) of 96.4% and a growth at 10 µM (SNB-75) of 68.1%. For the same molecule, the Activity [4] was 88%, the Activity [5] was 65% and the Activity [6] was 64%. It also gave an Activity [7] of 82% and an Activity [8] of 39%.
Work on CN1C(=O)/C(=C2/C(=O)N(C)c3ncccc32)c2cccnc21 yielded a growth at 10 µM (786-0) of 94.5%, a growth at 10 µM (CAKI-1) of 95.5% and a growth at 10 µM (SN12C) of 105%. The growth at 10 µM (TK-10) was 94.4%, the growth at 10 µM (HOP-92) was 108% and the growth at 10 µM (NCI-H23) was 103%. The growth at 10 µM (NCI-H522 [1]) was 98%, the growth at 10 µM (COLO 205) was 117% and the growth at 10 µM (HCT-116) was 90.4%. It also gave a growth at 10 µM (HCT-15) of 96%, a growth at 10 µM (MDA-MB-231) of 117% and a growth at 10 µM (NCI/ADR-RES) of 85.5%. For the same molecule, the growth at 10 µM (IGROV-1) was 52.2%, the growth at 10 µM (OVCAR-3) was 132% and the growth at 10 µM (OVCAR-4) was 99.8%. The growth at 10 µM (SK-OV-3) was 111%, the growth at 10 µM (MOLT-4) was 127% and the growth at 10 µM (Malme-3M) was 91.5%. For the same molecule, the growth at 10 µM (SK-MEL-28) was 106%, the growth at 10 µM (UACC-62) was 103% and the growth at 10 µM (DU-145 [2]) was 119%. It also gave a growth at 10 µM (SF-268 [3]) of 103%, a growth at 10 µM (SNB-19) of 99.4% and a growth at 10 µM (SNB-75) of 75.5%. It also gave an Activity [4] of 88%, an Activity [5] of 95% and an Activity [6] of 109%. For the same molecule, the Activity [7] was 101% and the Activity [8] was 84%.
Molecule O=C1Nc2ncccc2/C1=C1/Nc2ccccc2/C1=N\O has a growth at 10 µM (786-0) of 43.4%, a growth at 10 µM (CAKI-1) of 12.4% and a growth at 10 µM (SN12C) of 72.8%. The growth at 10 µM (TK-10) was 40.3%, the growth at 10 µM (HCC 2998) was 88% and the growth at 10 µM (T47D) was 65%. The growth at 100 µM (RPMI-8226) was 2%, the growth at 100 µM (SF-268 [9]) was 54% and the growth at 100 µM (UO-31) was 3%. It also gave a growth at 100 µM (DU-145 [10]) of 39%, a GI50 (A549) of 3.5 µM and a TGI (A549) of over 100 µM. The CC50 (A549; [12]) was over 100 µM, the GI50 (NCI-H522 [11]) was over 100 µM and the TGI (NCI-H522 [11]) was over 100 µM. For the same molecule, the CC50 (NCI-H522 [11]; [12]) was over 100 µM, the growth at 100 µM (U-251) was 55% and the growth at 10 µM (HOP-92) was 54%. The growth at 10 µM (NCI-H23) was 89.7%, the growth at 10 µM (NCI-H522 [1]) was 47.6% and the growth at 10 µM (COLO 205) was 106%. The growth at 10 µM (HCT-116) was 36.9%, the growth at 10 µM (HCT-15) was 33.9% and the growth at 10 µM (MDA-MB-231) was 78.6%. The growth at 10 µM (NCI/ADR-RES) was 71.8%, the growth at 10 µM (IGROV-1) was -25.3% and the growth at 10 µM (OVCAR-3) was 69.3%. It also gave a growth at 10 µM (OVCAR-4) of 86.7%, a growth at 10 µM (SK-OV-3) of 6.5% and a growth at 10 µM (MOLT-4) of 40.8%. It also gave a growth at 10 µM (Malme-3M) of 91%, a growth at 10 µM (SK-MEL-28) of 75.3% and a growth at 10 µM (UACC-62) of 56.7%. It also gave a growth at 10 µM (DU-145 [2]) of 82.2%, a growth at 10 µM (SF-268 [3]) of 86.2% and a growth at 10 µM (SNB-19) of 96.5%. The growth at 10 µM (SNB-75) was 31.2%, the Activity [4] was 105% and the Activity [5] was 69%. For the same molecule, the Activity [6] was 76%, the Activity [7] was 65% and the Activity [8] was 19%.
